In PubChem BioAssay (NCI):
Several values for one entry are separate records, joined by “and”; a condition that tells them apart may be missing. Equal values may be shown once.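 How tested: cells in 96-well plates exposed to compound for 48 hours at five concentrations. The concentration for 50% growth inhibition is given as GI50. TGI is the concentration that stops growth completely.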

Legend:
Experiment in all cases: NCI tumour cell line growth inhibition, 48 h
[1] = test system: 786-0 renal
[2] = test system: A498 renal
[3] = test system: A549 NSCLC
[4] = test system: ACHN renal
[5] = test system: BT-549 breast
[6] = test system: CAKI-1 renal
[7] = test system: CCRF-CEM leukemia
[8] = test system: COLO 205 colon
[9] = test system: DLD-1 colon
[10] = test system: DMS 114 small cell lung
[11] = test system: DMS 273 small cell lung
[12] = test system: DU-145 prostate
[13] = test system: HCC-2998 colon
[14] = test system: HCT-116 colon
[15] = test system: HCT-15 colon
[16] = test system: HL-60(TB) leukemia
[17] = test system: HOP-18 NSCLC
[18] = test system: HOP-62 NSCLC
[19] = test system: HOP-92 NSCLC
[20] = test system: HS 578T breast
[21] = test system: IGROV1 ovarian
[22] = test system: K-562 leukemia
[23] = test system: KM12 colon
[24] = test system: KM20L2 colon
[25] = test system: LOX IMVI melanoma
[26] = test system: LXFL 529 NSCLC
[27] = test system: M19-MEL melanoma
[28] = test system: MCF7 breast
[29] = test system: MDA-MB-231 breast
[30] = test system: MDA-MB-435
[31] = test system: MOLT-4 leukemia
[32] = test system: NCI-H226 lung
[33] = test system: NCI-H23 lung
[34] = test system: NCI-H460 lung
[35] = test system: NCI-H522 lung
[36] = test system: NCI/ADR-RES ovarian
[37] = test system: OVCAR-4 ovarian
[38] = test system: OVCAR-8 ovarian
[39] = test system: PC-3 prostate
[40] = test system: RPMI-8226 leukemia
[41] = test system: RXF-631 renal
[42] = test system: SF-295 CNS
[43] = test system: SF-539 CNS
[44] = test system: SK-MEL-2 melanoma
[45] = test system: SK-MEL-28 melanoma
[46] = test system: SK-MEL-5 melanoma
[47] = test system: SN12C renal
[48] = test system: SNB-19 CNS
[49] = test system: SNB-75 CNS
[50] = test system: SNB-78 CNS
[51] = test system: SR leukemia
[52] = test system: SW-620 colon
[53] = test system: T-47D breast
[54] = test system: TK-10 renal
[55] = test system: U251 CNS
[56] = test system: UACC-257 melanoma
[57] = test system: UACC-62 melanoma
[58] = test system: UO-31 renal
[59] = test system: XF 498 CNS

`CC(C)(O)/C=C/C(=O)[C@](C)(O)[C@H]1[C@H](O)C[C@@]2(C)[C@@H]3CC=C4[C@@H](C=C(O)C(=O)C4(C)C)[C@]3(C)C(=O)C[C@]12C` was tested, and the GI50 [1] was 0.21 µM, the GI50 [2] was 0.189 µM and 0.522 µM and the TGI [2] was 0.392 µM and 1.09 µM. For the same molecule, the TGI [3] was > 5.82 µM and 8.6 µM and 10.3 µM, the GI50 [4] was 0.268 µM and the TGI [5] was 0.0362 µM. For the same molecule, the GI50 [6] was 0.211 µM and 0.436 µM, the TGI [6] was 0.473 µM and 0.813 µM and the GI50 [7] was 0.253 µM and 0.709 µM. The TGI [7] was 2.02 µM and 4.52 µM, the GI50 [8] was 0.337 µM and the TGI [8] was > 10 µM and 7.92 µM and 1.35 µM. For the same molecule, the GI50 [9] was 0.291 µM and 0.721 µM, the TGI [9] was > 6.13 µM and 6.58 µM and the GI50 [10] was 2 µM. For the same molecule, the TGI [10] was 5.21 µM and 9.71 µM, the GI50 [11] was 0.282 µM and the TGI [11] was 1.26 µM and 4.29 µM. For the same molecule, the TGI [12] was 1.9 µM, the GI50 [13] was 0.319 µM and the TGI [14] was 3.63 µM and 7.31 µM and 1.15 µM. For the same molecule, the GI50 [15] was 0.273 µM, the TGI [15] was > 8.33 µM and 3.82 µM and the GI50 [16] was 0.265 µM and 1.1 µM. The TGI [16] was 0.935 µM and 2.54 µM, the GI50 [17] was 0.276 µM and 0.602 µM and the TGI [17] was 1.33 µM and 1.91 µM. It also gave a GI50 [18] of 0.442 µM, a GI50 [19] of 0.255 µM and a TGI [20] of 7.66 µM. The GI50 [21] was 0.27 µM, the TGI [21] was 0.688 µM and 4.45 µM and 4.6 µM and the TGI [22] was > 9.25 µM and 11.2 µM. The TGI [23] was > 10 µM and 2.33 µM, the GI50 [24] was 0.66 µM and the TGI [24] was > 5.6 µM. The GI50 [25] was 0.574 µM, the TGI [25] was 1.3 µM and 3.18 µM and the GI50 [26] was 0.712 µM. The TGI [26] was 1.55 µM and 6.67 µM, the GI50 [27] was 0.929 µM and 2.16 µM and the TGI [27] was > 10 µM. It also gave a TGI [28] of 10.5 µM, a TGI [29] of 0.0927 µM and a TGI [30] of 0.885 µM. For the same molecule, the TGI [31] was > 7.73 µM and 24.6 µM, the GI50 [32] was 0.252 µM and the TGI [33] was > 7.19 µM and 1.15 µM. For the same molecule, the TGI [34] was > 10 µM and 1.62 µM, the GI50 [35] was 0.278 µM and the TGI [36] was 17.1 µM. For the same molecule, the GI50 [37] was 0.343 µM, the TGI [37] was 3.21 µM and 4.57 µM and 11.5 µM and the TGI [38] was > 10 µM and 8.1 µM. The TGI [39] was 5.56 µM, the TGI [40] was 2.16 µM and 3.57 µM and 11 µM and the GI50 [41] was 0.75 µM. For the same molecule, the TGI [41] was > 4.22 µM and 3.61 µM, the GI50 [42] was 0.275 µM and the GI50 [43] was 0.253 µM. For the same molecule, the TGI [44] was 0.597 µM and 1.32 µM and 1.16 µM, the TGI [45] was 0.581 µM and 1.69 µM and 0.244 µM and the GI50 [46] was 0.31 µM. The TGI [46] was 1.23 µM and 3.62 µM and 1.27 µM, the GI50 [47] was 0.431 µM and the GI50 [48] was 0.407 µM. The TGI [48] was 1.32 µM and 5.45 µM and 1.19 µM, the GI50 [49] was 0.0721 µM and 0.193 µM and the GI50 [50] was 0.737 µM. For the same molecule, the TGI [50] was 1.61 µM and 5.53 µM, the GI50 [51] was 1.2 µM and 0.33 µM and the TGI [51] was > 4.6 µM and 9.08 µM and 14.5 µM. For the same molecule, the TGI [52] was > 4.83 µM and 6.87 µM and 1.64 µM, the TGI [53] was 4.27 µM and the GI50 [54] was 0.36 µM and 1.68 µM. For the same molecule, the TGI [54] was 0.77 µM and 3.23 µM, the GI50 [55] was 0.229 µM and the TGI [56] was 1.84 µM and 3.94 µM and 1.62 µM. For the same molecule, the TGI [57] was 4.97 µM and 8.94 µM and 1.76 µM, the GI50 [58] was 0.195 µM and the TGI [59] was 0.622 µM and 0.698 µM.
